According to patent US12516388B2, “Biosensors for polyketide extender units and uses thereof” (NORTH CAROLINA STATE UNIVERSITY, priority 2019, dated 2026):

Experiments:
[1] = molecular target: T1, FapR (Bacillus subtilis, UniProt O34835); conditions: previously reported; cited from earlier work
Target sequence in this assay (O34835 whole entry): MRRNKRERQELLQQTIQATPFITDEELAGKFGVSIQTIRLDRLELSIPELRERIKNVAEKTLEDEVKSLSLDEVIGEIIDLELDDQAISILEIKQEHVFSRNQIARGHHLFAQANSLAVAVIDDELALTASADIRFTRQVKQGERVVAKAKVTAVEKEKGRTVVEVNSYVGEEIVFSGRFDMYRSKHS

[2] = molecular target: T1, FapR; test: Cell-free transcription-translation (TX-TL) FapR/T7-fapO-sfGFP assay; assay type: biochemical, B. subtilis; design: made in house; host or cells: E. coli BL21(DE3); conditions: for effector of FapR as judged by cell-free fluorescence / fluorescence response (de-repression of FapR/T7-fapO-sfGFP) compared among thioesters: each thioester at fixed concentration (150 μM)
Excerpt: To this end, the reporter module of the FapR 2H8 biosensor was cloned into pET28a, replacing the typical lacO site controlling the T7 promoter with a single fapO binding site upstream of the sfGFP gene, producing pET28a-T7-fapO-sfGFP (FIG. 5C). Each α-carboxyacyl-CoA was generated enzymatically from the corresponding malonic acid and CoA using the wild-type malonyl-CoA synthetase MatB or the engineered MatB variant, T207G/M306I. Next, the response of the cell-free TX-TL biosensor assay was evaluated by using various concentrations of MatB-generated native effector, mCoA, along with a fixed amount of purified FapR and T7-fapO-sfGFP. […] In addition, the maximum fluorescence signal was ˜15-fold greater than that in the absence of mCoA. Furthermore, to account for potential inhibition of the cell-free biosensor by the MatB reaction mixture, the FapR system was also assayed using a commercial standard of mCoA.
Dose-response analysis of the cell-free TX-TL FapR assay. A premixed solution for cell-free transcription-translation reactions was purchased from New England Biolabs (PURExpress In Vitro Protein Synthesis Kit). To a PCR tube on ice were added (in the order shown): 4 μL Solution A, 3 μL Solution B, 2.5 μM FapR, 250 nM T7-fapO-sfGFP and 0-150 μM of MatB-generated or commercial mCoA in a total volume of 10 μL. In parallel, control reactions in the absence of thioester were assembled by using boiled MatB in the presence of malonic acid. The reaction was incubated for 16 h at 37° C. and then diluted with PBS buffer to give a final total volume of 50 μL.
Cell-Free Characterization of FapR Promiscuity. A commercial kit for cell-free transcription-translation reactions was purchased from New England Biolabs (PURExpress In Vitro Protein Synthesis Kit). To a PCR tube on ice were added (in the order shown): 4 μL Solution A, 3 μL Solution B, 2.5 μM FapR, 250 nM T7-fapO-sfGFP and 150 μM of MatB-generated acyl-CoA or mmSNAC in a total volume of 10 μL (FIG. 9). In parallel, control reactions in the absence of thioester were assembled by using boiled MatB. The reaction was incubated for 16 h at 37° C. and then diluted with PBS buffer to give a final total volume of 50 μL.
Target sequence in this assay (O34835 other isoform, or with tags, fused parts or gaps): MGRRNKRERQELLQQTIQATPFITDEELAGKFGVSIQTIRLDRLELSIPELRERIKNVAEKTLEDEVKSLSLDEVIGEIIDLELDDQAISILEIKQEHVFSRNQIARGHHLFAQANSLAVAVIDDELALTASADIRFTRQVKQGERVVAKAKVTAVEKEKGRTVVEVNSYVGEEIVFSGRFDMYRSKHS

[3] = molecular target: T2, FapR-fapO complex (Bacillus subtilis, UniProt O34835); test: Electrophoretic mobility shift assay of FapR and fapO; assay type: binding, B. subtilis; conditions: titrated against FapR, 40 bp fapO fragment; read-out: concentration at which half of the DNA would be bound
T2 construct: made in house; host or cells: E. coli BL21(DE3)
Description: Next, the cell-free FapR biosensor was assayed with each α-carboxyacyl-CoA at a fixed concentration (150 μM). […] This robust activity of pgmCoA is due in part to the increased rigidity of the alkyne side-chain or additional interactions of the alkynyl […] with the FapR ligand-binding site, with the […] side-chain of the nearby Phe99 (FIG. 5A). […] To provide further evidence that FapR is de-repressed by derivatives of mCoA, FapR was tested in vitro for DNA-binding and release by electrophoretic mobility shift assay (EMSA) in the presence of mCoA or mmCoA. Using purified wild-type FapR protein, EMSA was run with a 40 bp DNA fragment containing the fapO binding site (FIG. 7).
Electrophoretic mobility shift assay. The fapO oligonucleotides 5′-[…]-3′ (SEQ ID NO:30) and 5′-[…]-3′ (SEQ ID NO:31) were annealed per standard procedure. Briefly, the two oligos were added to a final concentration of 10 μM each in annealing buffer (19 mM Tris, pH 7.5, 50 mM NaCl, 1 mM EDTA) and heated to 95° C. for 2 minutes before cooling to 25° C. at a rate of −1° C. min^−1. […] Reactions were then analyzed by electrophoresis on a 6% PAGE gel at 220 V. The gel was stained with SYBR Green I and imaged on a Typhoon FLA 7000.

T2 sequence (O34835 other isoform, or with tags, fused parts or gaps): as above

In the case of `CC(=O)SCCNC(=O)CCNC(=O)[C@H](O)C(C)(C)COP(=O)(O)OP(=O)(O)OC[C@H]1O[C@@H](n2cnc3c(N)ncnc32)[C@H](O)[C@@H]1OP(=O)(O)O` [acetyl-CoA], the “effector status for FapR” value [1] is given as “non-effectors”.
In the case of `CCCCC(C(=O)O)C(=O)SCCNC(=O)CCNC(=O)[C@H](O)C(C)(C)COP(=O)(O)OP(=O)(O)OC[C@H]1O[C@@H](n2cnc3c(N)ncnc32)[C@H](O)[C@@H]1OP(=O)(O)O` (stereo partly drawn) [bmCoA, butylmalonyl-CoA], the “effector of FapR as judged by cell-free fluorescence” value (shortened to “effector … by cell-free fluorescence”) ([2]; FIG. 5D) is reported as “identified as effectors” and the “fluorescence response (de-repression of FapR/T7-fapO-sfGFP) compared among thioesters” value ([2]; FIG. 5D) is reported as “poorest effectors”.
In the case of `CCCC(=O)SCCNC(=O)CCNC(=O)[C@H](O)C(C)(C)COP(=O)(O)OP(=O)(O)OC[C@H]1O[C@@H](n2cnc3c(N)ncnc32)[C@H](O)[C@@H]1OP(=O)(O)O` [butyryl-CoA], the “effector status for FapR” value [1] is listed as “non-effectors”.
For `CCC(C(=O)O)C(=O)SCCNC(=O)CCNC(=O)[C@H](O)C(C)(C)COP(=O)(O)OP(=O)(O)OC[C@H]1O[C@@H](n2cnc3c(N)ncnc32)[C@H](O)[C@@H]1OP(=O)(O)O` (stereo partly drawn) [emCoA, ethylmalonyl-CoA], the “effector … by cell-free fluorescence” value ([2]; FIG. 5D) was “identified as effectors” and the “fluorescence response (de-repression of FapR/T7-fapO-sfGFP) compared among thioesters” value ([2]; FIG. 5D) was “poorest effectors”.
With `CC(C)(COP(=O)(O)OP(=O)(O)OC[C@H]1O[C@@H](n2cnc3c(N)ncnc32)[C@H](O)[C@@H]1OP(=O)(O)O)[C@@H](O)C(=O)NCCC(=O)NCCSC(=O)CC(=O)O` [mCoA, malonyl-CoA] the EC50 [3] was 200 µM, the “maximum fluorescence signal relative to absence of mCoA” value ([2]; 0-150 μM mCoA) was ~15 fold and the “concentration range with linear fluorescence output of the cell-free biosensor” value ([2]; MatB-generated mCoA, 2.5 μM FapR, 250 nM T7-fapO-sfGFP) was “up to 150 μM”. The “fluorescence output, MatB-generated versus commercial mCoA” value ([2]; dose-response, FIG. 6) was “no significant difference”.
With `CC(C(=O)O)C(=O)SCCNC(=O)CCNC(=O)[C@H](O)C(C)(C)COP(=O)(O)OP(=O)(O)OC[C@H]1O[C@@H](n2cnc3c(N)ncnc32)[C@H](O)[C@@H]1OP(=O)(O)O` (stereo partly drawn) [mmCoA, methylmalonyl-CoA] the “fluorescence response (de-repression of FapR/T7-fapO-sfGFP) compared among thioesters” value ([2]; FIG. 5D) was “statistically indistinguishable from that with the native ligand, mCoA”.
With `CC(=O)NCCSC(=O)C(C)C(=O)O` (stereo not drawn) [mmSNAC] the “de-repression activity relative to the corresponding CoA thioester” value ([2]; 150 μM, fluorescence assay, FIG. 5D) was ~50% and the “effector … by cell-free fluorescence” value ([2]; FIG. 5D) was “determined to be an effector”.
For `C#CCC(C(=O)O)C(=O)SCCNC(=O)CCNC(=O)[C@H](O)C(C)(C)COP(=O)(O)OP(=O)(O)OC[C@H]1O[C@@H](n2cnc3c(N)ncnc32)[C@H](O)[C@@H]1OP(=O)(O)O` (stereo partly drawn) [pgmCoA, propargylmalonyl-CoA], the “effector … by cell-free fluorescence” value ([2]; FIG. 5D) was “identified as effectors” and the “fluorescence response (de-repression of FapR/T7-fapO-sfGFP) compared among thioesters” value ([2]; FIG. 5D) was “indistinguishable from that of mCoA and mmCoA”.
In the case of `CCC(=O)SCCNC(=O)CCNC(=O)[C@H](O)C(C)(C)COP(=O)(O)OP(=O)(O)OC[C@H]1O[C@@H](n2cnc3c(N)ncnc32)[C@H](O)[C@@H]1OP(=O)(O)O` [propionyl-CoA], the “effector status for FapR” value [1] is listed as “non-effectors” and the “effector … by cell-free fluorescence” value ([2]; FIG. 5D) is listed as “de-repression was not observed”.
For `CC(C)(COP(=O)(O)OP(=O)(O)OC[C@H]1O[C@@H](n2cnc3c(N)ncnc32)[C@H](O)[C@@H]1OP(=O)(O)O)[C@@H](O)C(=O)NCCC(=O)NCCSC(=O)CCC(=O)O` [succinyl-CoA], the “effector status for FapR” value [1] is listed as “non-effectors”.
